According to ChEMBL document CHEMBL5338753, “Stapled Peptides as Direct Inhibitors of Nrf2-sMAF Transcription Factors” (J Med Chem, 2023):
The source made the active and inactive calls. The calls are words filed in the database; no cut-off is given here. Positions of bridges follow the written chain, without caps; N, C: chain ends. Non-standard residues stand in square brackets, D forms with d. Residues, ends and D or L forms follow the SMILES beside them. R5 = C=CCCC[C@@](C)(N)C(=O)O

Tests used:
Homo sapiens = species: Homo sapiens; assay: Inhibition of human recombinant His-MBP-tagged Nrf2/recombinant His-tagged MafG heterodimer interaction with 5' FAM-labeled ARE at 0.2 uM preincubated for 5 mins with Nrf2 under shaking condition followed by MafG addition for 5 mins further incubated with ARE and measured after 10 mins by fluorescence polarization assay; settings: time 20.0 min
A549 [1] = assay: Synergistic antiproliferative activity against human A549 cells assessed as cell death at 3.125 uM incubated for 72 hrs in presence of 6 uM cisplatin by MTT assay (reference value: 46%); format: functional
A549 [2] = assay: Synergistic antiproliferative activity against human A549 cells assessed as cell death at 1.563 uM incubated for 72 hrs in presence of 6 uM cisplatin by MTT assay (reference value: 46%); format: functional
A549 [3] = assay: Downregulation of GCLC mRNA level in human A549 cells at 50 uM incubated for 72 hrs by qPCR assay; format: functional, cell-based
A549 [4] = assay: Synergistic antiproliferative activity against human A549 cells assessed as cell death at 100 uM incubated for 72 hrs in presence of 6 uM cisplatin by MTT assay (reference value: 46%); format: functional
A549 [5] = assay: Antiproliferative activity against human A549 cells assessed as cell death at 100 uM incubated for 72 hrs by MTT assay relative to control; format: functional
HEK-293T = assay: Cytotoxicity against HEK-293T cells assessed as reduction in cell viability; format: toxicity, cell-based; settings: human
A549 [6] = assay: Synergistic antiproliferative activity against human A549 cells assessed as cell death at 50 uM incubated for 72 hrs in presence of 12 uM cisplatin by MTT assay (reference value: 66%); format: functional
A549 [7] = assay: Synergistic antiproliferative activity against human A549 cells assessed as combination index at 3.125 uM incubated for 72 hrs in presence of 12 uM cisplatin by Chou-Talalay method; format: functional
A549 [8] = assay: Synergistic antiproliferative activity against human A549 cells assessed as combination index at 1.563 uM incubated for 72 hrs in presence of 12 uM cisplatin by Chou-Talalay method; format: functional
A549 [9] = assay: Synergistic antiproliferative activity against human A549 cells assessed as combination index at 50 uM incubated for 72 hrs in presence of 12 uM cisplatin by Chou-Talalay method; format: functional
A549 [10] = assay: Synergistic antiproliferative activity against human A549 cells assessed as combination index at 1.563 uM incubated for 72 hrs in presence of 6 uM cisplatin by Chou-Talalay method; format: functional
A549 [11] = assay: Synergistic antiproliferative activity against human A549 cells assessed as combination index at 6.25 uM incubated for 72 hrs in presence of 6 uM cisplatin by Chou-Talalay method; format: functional
A549 [12] = assay: Synergistic antiproliferative activity against human A549 cells assessed as cell death at 25 uM incubated for 72 hrs in presence of 6 uM cisplatin by MTT assay (reference value: 46%); format: functional
[13] = biological target: T1, Nuclear factor erythroid 2-related factor 2 (Homo sapiens) (UniProt Q16236); assay: Inhibition of human Nrf2 in HEK-293T cells expressing ARE-firefly luciferase and TK-Renilla luciferase at 50 to 100 uM incubated for 16 hrs by Dual-Luciferase reporter based luminometer analysis; format: cell-based; settings: dose 50-100 µM
T1 sequence (whole entry): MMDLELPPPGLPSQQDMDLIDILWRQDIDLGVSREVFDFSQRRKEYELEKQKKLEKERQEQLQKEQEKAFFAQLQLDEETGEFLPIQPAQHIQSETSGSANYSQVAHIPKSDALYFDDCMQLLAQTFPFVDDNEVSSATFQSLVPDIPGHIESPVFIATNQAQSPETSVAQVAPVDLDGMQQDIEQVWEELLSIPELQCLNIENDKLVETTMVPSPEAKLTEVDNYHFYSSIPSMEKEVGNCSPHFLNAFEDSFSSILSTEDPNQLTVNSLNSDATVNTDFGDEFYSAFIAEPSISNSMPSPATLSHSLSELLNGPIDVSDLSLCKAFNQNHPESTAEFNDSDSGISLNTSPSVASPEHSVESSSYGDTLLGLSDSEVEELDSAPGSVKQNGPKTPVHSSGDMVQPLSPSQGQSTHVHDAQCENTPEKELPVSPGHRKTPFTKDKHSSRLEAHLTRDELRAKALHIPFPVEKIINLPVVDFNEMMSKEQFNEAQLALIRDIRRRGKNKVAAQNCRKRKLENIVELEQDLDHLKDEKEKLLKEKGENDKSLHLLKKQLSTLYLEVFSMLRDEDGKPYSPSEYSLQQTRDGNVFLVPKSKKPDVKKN

A549 [14] = assay: Antiproliferative activity against human A549 cells assessed as cell death at 12.5 uM incubated for 72 hrs by MTT assay relative to control; format: functional
A549 [15] = assay: Downregulation of NQO2 mRNA level in human A549 cells at 50 uM incubated for 72 hrs by qPCR assay; format: functional, cell-based
A549 [16] = assay: Antiproliferative activity against human A549 cells assessed as cell death at 25 uM incubated for 72 hrs by MTT assay relative to control; format: functional
A549 [17] = assay: Downregulation of TrxR1 protein expression in human A549 cells at 25 to 50 uM incubated for 72 hrs by Western blot analysis; format: functional, cell-based; settings: dose 25-50 µM
A549 [18] = assay: Synergistic antiproliferative activity against human A549 cells assessed as combination index at 100 uM incubated for 72 hrs in presence of 6 uM cisplatin by Chou-Talalay method; format: functional
A549 [19] = assay: Synergistic antiproliferative activity against human A549 cells assessed as cell death at 100 uM incubated for 72 hrs in presence of 12 uM cisplatin by MTT assay (reference value: 66%); format: functional
[20] = Hemolytic activity against human red blood cells at 100 uM relative to control; format: toxicity, cell-based, Erythrocyte; settings: red blood cells (erythrocytes), read-out: Activity
A549 [21] = assay: Downregulation of HMOX1 mRNA level in human A549 cells at 50 uM incubated for 72 hrs by qPCR assay; format: functional, cell-based
A549 [22] = assay: Synergistic antiproliferative activity against human A549 cells assessed as combination index at 25 uM incubated for 72 hrs in presence of 6 uM cisplatin by Chou-Talalay method; format: functional
A549 [23] = assay: Synergistic antiproliferative activity against human A549 cells assessed as cell death at 12.5 uM incubated for 72 hrs in presence of 12 uM cisplatin by MTT assay (reference value: 66%); format: functional
[24] = Stability of compound assessed as proteinase K (unknown origin) mediated compound degradation at 55 uM measured upto 24 hrs by LC/MS analysis; format: ADME; settings: human
A549 [25] = assay: Synergistic antiproliferative activity against human A549 cells assessed as combination index at 25 uM incubated for 72 hrs in presence of 12 uM cisplatin by Chou-Talalay method; format: functional
A549 [26] = assay: Synergistic antiproliferative activity against human A549 cells assessed as cell death at 12.5 uM incubated for 72 hrs in presence of 6 uM cisplatin by MTT assay (reference value: 46%); format: functional
A549 [27] = assay: Synergistic antiproliferative activity against human A549 cells assessed as reduction in cell growth at 50 uM incubated for 3 days in presence of 6 uM cisplatin and measured every 2 hrs by IncuCyte live-cell imaging assay; format: functional, cell-based; settings: time 3.0 day
A549 [28] = assay: Downregulation of TXN mRNA level in human A549 cells at 50 uM incubated for 72 hrs by qPCR assay; format: functional, cell-based
A549 [29] = assay: Synergistic antiproliferative activity against human A549 cells assessed as combination index at 12.5 uM incubated for 72 hrs in presence of 6 uM cisplatin by Chou-Talalay method; format: functional

## CC[C@H](C)[C@H](NC(C)=O)C(=O)N[C@H](C(=O)N[C@@H](CCC(=O)O)C(=O)N[C@@H](CC(C)C)C(=O)N[C@@H](CCC(=O)O)C(=O)N[C@]1(C)CCC/C=C\CCC[C@](C)(C(=O)N[C@@H](CC(C)C)C(=O)N[C@@H](CCCCN)C(=O)N[C@@H](CC(=O)O)C(=O)N[C@@H](CCC(=O)O)C(=O)N[C@@H](CCCCN)C(=O)N[C@@H](CCC(=O)O)C(N)=O)NC(=O)[C@H](CC(=O)O)NC(=O)[C@H](CC(C)C)NC(=O)[C@H](CC(=O)O)NC1=O)C(C)C (Ac-IVELE[R5]DLD[R5]LKDEKE-NH2; staple (Z) 6-10)
Homo sapiens
  inhibition: Active
A549 [1]
  Activity: 52%
A549 [2]
  Activity: 50%
A549 [3]
  Activity: Active
A549 [4]
  Activity: 76%
A549 [5]
  Activity: 37%
HEK-293T
  Activity: Non-Toxic
A549 [6]
  Activity: 93%
A549 [7]
  CI: 0.82
A549 [8]
  CI: 0.96
A549 [9]
  CI: 0.19
A549 [10]
  CI: 0.89
A549 [11]
  CI: 0.67
A549 [12]
  Activity: 68%
[13]
  inhibition: Active
A549 [14]
  Activity: 24%
A549 [15]
  Activity: Active
A549 [16]
  Activity: 30%
A549 [17]
  Activity: Active
A549 [18]
  CI: 0.42
A549 [19]
  Activity: 100%
[20]
  hemolysis at 100 µM: 0.3%
A549 [21]
  Activity: Active
A549 [22]
  CI: 0.51
A549 [23]
  Activity: 81%
[24]
  Stability: Unstable
A549 [25]
  CI: 0.35
A549 [26]
  Activity: 64%
A549 [27]
  Activity: Active
A549 [28]
  Activity: Active
A549 [29]
  CI: 0.57
